What was measured:
[1] = system: reticular dermal (Dlk1^+) ENFs; assay: Fractionated ENF subpopulations cultured on TCPS with or without ROCK inhibitor; type: cell-based, mouse; conditions: 14 days, ROCK inhibitor added
Text: (§1) Mice were euthanized by CO2 narcosis and cervical dislocation, the dorsal fur was clipped, a depilatory cream was applied topically to the dorsum for 30 seconds. Next, the dorsal skin was harvested using dissecting scissors by separation along fascial planes, the subcutaneous fat was trimmed with a scalpel, and the skin was rinsed in betadine, followed by 5 rinses in cold PBS. To achieve a cell suspension, the harvested skin was finely minced using sharp scissors, enzymatically digested (Liberase DL, 0.5 mg/mL, 1 hour), and filtered through a 40 μm nylon mesh. ENFs and EPFs were isolated from En-1^Cre;R26^mTmG mice (En-1 lineage-negative cells, mTomato^+; En-1 lineage-positive cells, GFP^+) via a previously reported FACS strategy. Briefly, a lineage gate (Lin) for hematopoietic (CD45, Ter-119), endothelial (CD31, Tie2), and epithelial (CD326, CD324) cell markers was used as a negative gate to isolate fibroblasts (Lin^−), which were sorted into ENFs (Tornato^+GFP^−Lin^−) and EPFs (Tomato^−GFP+ Lin^−). To isolate ENF subpopulations, dorsal skin cells were harvested from P1 En-1^Cre,Ai6 mice (En-1 lineage-negative cells, no fluorescence; En-1 lineage-positive cells, GFP^+) via mechanical and enzymatic digestion as described above. […]

ENFs = ENFs cultured on stiff tissue culture plastic (TCPS) with ROCK inhibitor: En-1 activation; type: cell-based, mouse; conditions: bulk ENFs on stiff TCPS with ROCK inhibitor, 14 days in culture
Text: as §1

## C[C@@H](N)[C@H]1CC[C@H](C(=O)Nc2ccncc2)CC1 [Y-27632]
[1]
  En-1 activation in Dlk1+ ENFs: blocked
ENFs
  En-1 activation (conversion of ENFs to GFP+ EPFs): lack of En-1 activation

Source: patent US20220313658A1, “YAP Inhibition for Wound Healing” (The Board of Trustees of the Leland Stanford Junior …, priority 2019, published 2022)
